From US20040023994A1 (priority 2002, published 2004)
“Also recorded” adds a separate entry of the source.

Experiments:
A-498 cells = test: MTT cytotoxicity assay; format: cell-based, human; details: for IC50: A-498, 72 h incubation, MTT
Description: (§1) Preliminary studies examining the in vitro cytotoxicity of cis-AVTP and trans-AVTG as compared to the parent drugs, were carried out using the 3-[4,5-dimethylthiazol-2-yl]-2,5-diphenyl tetrazolium bromide (MTT) cytotoxicity assay.

ACHN cells = test: MTT cytotoxicity assay; format: cell-based, human; details: for IC50: 72 h incubation, MTT
Description: as §1

In the case of `CC(=O)C=Cc1ccccc1` [PBO, phenylbutenone], the IC50 (A-498 cells) is reported as 252 ± 149 µM and the IC50 (ACHN cells) is reported as 62.3 ± 10.7 µM.
With `Cn1cnc([N+](=O)[O-])c1Sc1ncnc2nc[nH]c12` [AZA, azathioprine] the IC50 (A-498 cells; Homo sapiens, A498) was 50.2 ± 10.4 µM and the IC50 (ACHN cells; Homo sapiens) was 22.1 µM.
With `O=C(O)/C=C\Sc1ncnc2[nH]cnc12` [PTA, cis-3-(9H-purin-6-ylthio)acrylic acid] the cytotoxicity (A-498 cells; A-498, within the concentration range examined (up to 500 μM)) was “little cytotoxicity; also recorded: not cytotoxic” and the cytotoxicity (ACHN cells; within the concentration range examined (up to 500 μM)) was “little cytotoxicity; also recorded: not cytotoxic”.
